# Laboratory results reported in patent publication US10730857B2, “Benzocyanine compounds” (Pierce Biotechnology, Inc., priority 2011, dated 2020).
# Columns and labels:
# [1] = Absorbance/emission spectral properties and fluorescence intensity of the dyes; assay type: physicochemical
# Description: Emission/excitation profiles for inventive and commercial compounds was determined by reconstituting the compounds in DMF at 10 mg/ml and then diluting in PBS buffer pH 7.2 to 10 μg/ml.
# [2] = system: rabbit IgG immunoglobulin; assay: Plate functional assay of dye-GAR conjugates; assay type: binding
# Description: Performance of the dye-GAM conjugates, dye-GAR conjugates, and dye-SA conjugates was evaluated in a functional assay. Wells of a 96 white opaque plate or black clear-bottom plate were coated with target proteins mouse IgG immunoglobulin, rabbit IgG immunoglobulin, or biotinylated bovine serum albumin (BBSA). One hundred μl mouse or rabbit IgG, or BBSA at a concentration of 10 μg/ml was applied to the corresponding wells in columns 1 and 2. The target proteins were serially diluted 1:1 from the wells in columns 2 to 11 using 100 μl PBS. One hundred μl of the samples from the wells in column 11 were discarded. One hundred μl PBS was added to the wells in column 12. The plates were incubated overnight at 4° C. and then blocked 2×200 μl with Thermo Scientific SuperBlock® Blocking Buffer. The coated plates were washed 2×200 μl with PBS-Tween and 1×200 μl with PBS. Based on the calculated concentrations, conjugates were diluted 1:250 in PBS, added to the corresponding plates (100 μl/well) and then incubated for one hour in the dark. The plates were washed with 2×200 μl with PBS-Tween and 1×200 μl with PBS and filled with PBS buffer (100 μl/well) prior to scanning the white opaque plates on Tecan Safire using 679 nmexcitation/702 nmemission or scanning the black clear-bottom plates on LiCor Odyssey at 700 channel, to detect fluorescence intensity.
# lamin A in U20S cells [3] = assay: Immunofluorescence detection of lamin A in U20S cells (FIG. 20A-C and repeat); assay type: cell-based
# Description: In the indicated experiments, the inventive compounds and commercial dye were evaluated for immunofluorescence in a cell based assay using the following protocol. Frozen U20S cell plates which were stored at −80° C. were thawed for 45 minutes at 50° C. Storage buffer (PBS) was removed and the cells were permeabilized for 15 minutes with 0.1% Triton-X100 in 1×PBS buffer (100 μl/well). The cell plate was blocked for 60 minutes in 2% BSA/PBS-0.1% Triton-X100. Primary antibody, either rat anti-Grp94 (5 μg/ml), mouse anti-lamin A (10 μg/ml), or rabbit anti-lamin B1 (10 μg/ml), diluted in 2% BSA/PBS-0.1% Triton-X100 was added to the plate and incubated for 1 hour at room temperature. Control wells contained only 2% BSA/PBS-0.1% Triton-X100 blocker. After incubation, the antibody solution was removed from the plate and the plate was washed three times with 100 μl/well of PBS-0.5% Tween-20 and one time with 100 μl/well PBS. GARat, GAM, or GAR secondary antibodies labeled with various molar excess of the inventive or commercial compound were diluted to 4 μg/ml in PBS and incubated for 1 hour at room temperature. The plates were washed three times with 100 μl/well of PBST and once with 100 μl/well PBS, and Hoechst (diluted to 0.1 μg/ml in PBS) was added to each well (100 μl/well). The plates were scanned on ArrayScan Plate Reader or ToxInsight Instrument.
# [4] = In vivo imaging with dye-labeled anti-CEA antibody; set-up: species or system nu/nu mice; conditions: dye conjugated to mouse anti-CEA antibody; i.v.; predicted results
# Description: The inventive compounds are used for in vivo imaging as described in J. Gastrointest Surg (2008) 12:1938-1950. Briefly, human pancreatic cell lines are maintained in media supplemented with penicillin/streptomycin at 37° C. with 5% CO2. Mouse anti-CEA antibody and Control Mouse IgG (in PBS with 0.20% sodium azide) are conjugated to V08-15173. The dye is reconstituted at 10 mg/ml in DMF and then added to the antibody at a 10 molar excess. The reaction is carried out for one hour at room temperature. The samples are then dialyzed against 3×2 L of PBS. The cell lines are plated in 96-well plates at 5×10^4 cells per well. After 48 hours culture in appropriate media, the cells are incubated with 1 μg of V08-15173 labeled anti-CEA antibody or V08-15173-labeled control mouse IgG for four hours at 37° C. The cells are then washed three times with PBS and then imaged with an inverted Nikon De-485 microscope and Spot camera RD.
# Surgical procedures and intravital imaging are performed with the animals anesthesized by intramuscular injection of 0.02 ml of 50% ketamine, 38% xylazine and 12 acepromazine maleate. Human pancreatic and colorectal cancer cell lines are harvested by trypsinization and washed twice with serum free medium […]. Cells (1×10^6 in 100 μl of serum-free media) are injected subcutaneously within 30 minutes of harvesting over the right flank in female nu/nu mice between 4-6 weeks of age. Subcutaneous tumors are allowed to grow for 7-14 days until they reached diameter of 1-2 mm prior to the delivery of conjugated antibody. For ASPC-1 implants, the cells are harvested by trypsinization and washed 3× in serum-free media. […]. The cells are resuspended in serum-free media at 5×10^6/ml. A volume of 200 μl of the cell suspension is then injected directly into the peritoneal cavity within 30 minutes of harvesting.
# For antibody delivery, one to two weeks after subcutaneous, orthotopic, or intraperitoneal tumor implantation, animals are given intravenous (i.v.) injection of either conjugated anti-CEA or conjugated control IgG antibody diluted in PBS to a final volume of 100 μl. All i.v. injections are done via the tail vein. For the dose-response experiment, the antibody dose is 75 μg. For the in vivo time course, the animals are anesthesized and imaged at 30 min, 1, 2, 6, 24 hours and 8 and 15 days after systemic antibody delivery.
# The inventive compounds are used for in vivo imaging as described in J. Gastrointest Surg (2008) 12:1938-1950. Briefly, human pancreatic cell lines are maintained in media supplemented with penicillin/streptomycin at 37° C. with 5% CO2. Mouse anti-CEA antibody and Control Mouse IgG (in PBS with 0.20% sodium azide) are conjugated to 779 Compound 1. […]
# lamin A in U20S cells [5] = assay: Immunofluorescence, mouse anti-lamin A, U20S cells (FIG. 16); assay type: cell-based; conditions: FIG. 16
# Description: The inventive compounds and commercial dye were evaluated for immunofluorescence in a second cell based assay using the following protocol. Frozen U20S cell plates stored at −20° C. were placed overnight at 4° C. Storage buffer (PBS) was removed and the cells were permeabilized for 15 min (100 μl/well) with 0.1% Triton-X100 in 1×PBS buffer. Plates were blocked for 30 min in 2% BSA in 1×PBS-0.1% Trion-X100. Primary antibodies diluted in 2% BSA in 1×PBS-0.1% Trion-X100 were added to the plates (column 1-11; column 12 included only blocker) and incubated five hours at room temperature. Mouse anti-lamin A was added at 2 μg/ml and rabbit anti-lamin B1 was added at 4 μg/ml. After incubation, the antibody solution was removed from the plates and the plates were washed PBS-0.5% Tween-20 (2×100 μl/well). Next, GAM and GAR secondary antibodies labeled with DyLight 680-NHS, DyLight 680B-NHS, 679 Compound 1-NHS, and Cy5.5 Mono Ester were diluted to 4 μg/ml in PBS and incubated with the cells for one hour at room temperature. GAM and GAR conjugated to DyLight 680-NHS, DyLight 680B-NHS, 679 Compound 1-NHS, and Company B Compound at 10× molar excess were diluted to 4 μg/ml in PBS and then serially diluted 1:1 in the plate to the following concentrations: 2 μg/ml, 1 μg/ml, 0.5 μg/ml, 0.25 μg/ml, 0.125 μg/ml and/or 0.0625 μg/ml. The plates were washed 3× with 100 μl/well PBS, and Hoechst stain diluted to 0.1 μg/ml in PBS was added to each well (100 μl/well). The plates were scanned on ArrayScan Plate Reader for imaging and quantitation.
# [6] = first property table of Example 6, NHS/mono ester forms
# [7] = second property table of Example 6, NHS ester forms
compound,measurement,setting,value
COCC[N+]1=C(/C=C/C=C/C=C2/N(CCCCCC(=O)ON3C(=O)CCC3=O)c3ccc4c(S(=O)(=O)[O-])cc(S(=O)(=O)O)cc4c3C2(C)C)C(C)(CCCS(=O)(=O)O)c2c1ccc1c(S(=O)(=O)O)cc(S(=O)(=O)O)cc21 (centres unmarked) [679 Compound 1-NHS],Em,[1]; [6],698 nm
same,Ex,[1]; [6],679 nm
same,Em,[1]; [7],698 nm
same,Ex,[1]; [7],679 nm
"COCC[N+]1=C(/C=C/C=C/C=C2/N(CCCCCC(=O)O)c3ccc4c(S(=O)(=O)[O-])cc(S(=O)(=O)[O-])cc4c3C2(C)C)C(C)(CCCS(=O)(=O)[O-])c2c1ccc1c(S(=O)(=O)[O-])cc(S(=O)(=O)[O-])cc21.[Na+].[Na+].[Na+].[Na+] (centres unmarked) [679 Compound 1/1, 2-{(1E,3E)-5-[3-(5-Carboxypentyl)-1,1-dimethyl-6,8-disulfo-1,3-dihydro-benzo[e]indol-(2E)-ylidene]-penta-1,3-dienyl}-3-(2-methoxy-ethyl)-1-methyl-6,8-disulfo-1-(3-sulfopropyl)-1H-benzo[e]indolium]",quenching at 1000 ng/well at 25× (in words),[2]; FIG. 14 summary Raw Fluorescence Intensity,apparent quenching
same,Raw Fluorescence Intensity behaviour at 25× molar excess (in words),"[2]; LiCOR Odyssey, FIG. 12",saturating at 25×
same,"Mean Total Intensity, Average, 2.5 X","lamin A in U20S cells [3]; GAM conjugate 4 μg/ml, 2.5 X molar excess",29229
same,"Mean Total Intensity, Average, 5.0 X","lamin A in U20S cells [3]; GAM conjugate 4 μg/ml, 5.0 X molar excess",49279
same,"Mean Total Intensity, Average, 7.5 X","lamin A in U20S cells [3]; GAM conjugate 4 μg/ml, 7.5 X molar excess",28782
same,"Mean Total Intensity, Average, 10 X","lamin A in U20S cells [3]; GAM conjugate 4 μg/ml, 10 X molar excess",30098
same,"Mean Total Intensity, Average, 15 X","lamin A in U20S cells [3]; GAM conjugate 4 μg/ml, 15 X molar excess",48071
same,"Mean Total Intensity, Negative control, 2.5 X","lamin A in U20S cells [3]; repeat experiment, no primary antibody, 2.5 X",8711
same,"Mean Total Intensity, Negative control, 5 X","lamin A in U20S cells [3]; repeat experiment, no primary antibody, 5 X",8674
same,"Mean Total Intensity, Negative control, 10 X","lamin A in U20S cells [3]; repeat experiment, no primary antibody, 10 X",20481
same,"Mean Total Intensity, Negative control, 15 X","lamin A in U20S cells [3]; repeat experiment, no primary antibody, 15 X",16277
"COCC[N+]1=C(/C=C/C=C/C=C/C=C2/N(CCCCCC(=O)O)c3ccc4c(S(=O)(=O)[O-])cc(S(=O)(=O)O)cc4c3C2(C)C)C(C)(CCCS(=O)(=O)O)c2c1ccc1c(S(=O)(=O)O)cc(S(=O)(=O)O)cc21 (centres unmarked) [779 Compound 1, 6-((E)-2-((2E,4E,6E)-7-(3-(2-methoxyethyl)-1-methyl-6,8-disulfonato-1-(3-sulfonatopropyl)-1H-benzo[e]indol-3-ium-2-yl)hepta-2,4,6-trien-1-ylidene)-1,1-dimethyl-6,8-disulfonato-1H-benzo[e]indol-3(2H)-yl)hexanoate]",Ex vivo analysis of the vital organs,[4],presence of dye predominantly in the liver with some signal detected in the spleen intestines and lungs
same,post-experiment surgical exposure: accumulation of dye,[4],"accumulation of dye in the liver, bladder, and a region of inflammation in the subcutaneous tissue"
"COCC[N+]1=C(/C=C/C=C/C=C2/N(CCCCCC(=O)O)c3ccc4c(S(=O)(=O)[O-])cc(S(=O)(=O)[O-])cc4c3C2(C)C)C(C)(CCCS(=O)(=O)[O-])c2c1ccc1c(S(=O)(=O)[O-])cc(S(=O)(=O)[O-])cc21.[Na+].[Na+].[Na+].[Na+] (single isomer, unassigned; isomer 1) [679 Compound 1/1 (isomer 1), 2-{(1E,3E)-5-[3-(5-Carboxypentyl)-1,1-dimethyl-6,8-disulfo-1,3-dihydro-benzo[e]indol-(2E)-ylidene]-penta-1,3-dienyl}-3-(2-methoxy-ethyl)-1-methyl-6,8-disulfo-1-(3-sulfopropyl)-1H-benzo[e]indolium]",UV-vis λmax,[1]; PBS,679 nm
Cy5.5 [reference compound],Mean Total Intensity 2X,lamin A in U20S cells [5]; GAM conjugated at 2X molar excess,211945
same,Mean Total Intensity 3X,lamin A in U20S cells [5]; GAM conjugated at 3X molar excess,342208
same,Mean Total Intensity 4X,lamin A in U20S cells [5]; GAM conjugated at 4X molar excess,451111
"2-{(1E,3E)-5-[3-(5-Carboxypentyl)-1,1-dimethyl-6,8-disulfo-1,3-dihydro-benzo[e]indol-(2E)-ylidene]-penta-1,3-dienyl}-3-(2-methoxy-ethyl)-1-methyl-6,8-disulfo-1-(3-sulfopropyl)-1H-benzo[e]indolium [679 Compound 1/1 (isomer 2)]",UV-vis λmax,[1]; PBS,679 nm
same,λem,[1]; PBS,698 nm
